{"source": "ChEMBL document CHEMBL1125625", "about": "“Antinociceptive (aminoalkyl)indoles” (J Med Chem, 1991)", "assay_type_in_all_cases": "functional", "key": {"Mus musculus [1]": {"tested_on": "Mus musculus", "assay": "Acetylcholine writhing inhibitory activity for the compound was measured in mouse (in vivo) by peroral administration at 1000 uM"}, "Mus musculus [2]": {"tested_on": "Mus musculus", "assay": "Acetylcholine writhing inhibitory activity was measured in mouse (in vivo) by iv administration"}, "Mus musculus [3]": {"tested_on": "Mus musculus", "assay": "Acetylcholine writhing inhibitory activity for the compound was measured in vivo in mouse by peroral administration at 20 uM"}, "Mus musculus [4]": {"tested_on": "Mus musculus", "assay": "Acetylcholine writhing inhibitory activity measured in vivo in mouse by peroral administration", "conditions": "po"}, "Mus musculus [5]": {"tested_on": "Mus musculus", "assay": "Acetylcholine writhing inhibitory activity for the compound was measured in mouse (in vivo) by iv administration at 30 uM"}, "Mus musculus [6]": {"tested_on": "Mus musculus", "assay": "Acetylcholine writhing inhibitory activity for the compound was measured in vivo in mouse by peroral administration at 238 uM"}, "Mus musculus [7]": {"tested_on": "Mus musculus", "assay": "Acetylcholine writhing inhibitory activity for the compound was measured in vivo in mouse by peroral administration at 300 uM"}, "Rattus norvegicus [8]": {"tested_on": "Rattus norvegicus", "assay": "Intra arterial bradykinin activity for the compound was measured in rat (in vivo) by peroral administration"}, "Rattus norvegicus [9]": {"tested_on": "Rattus norvegicus", "assay": "Acetic acid writhing inhibitory activity for the compound was measured in rat (in vivo) by peroral administration", "conditions": "po"}, "Rattus norvegicus [10]": {"tested_on": "Rattus norvegicus", "assay": "Adjuvant arthritis paw flexion activity for the compound was measured in rat (in vivo) by peroral administration", "conditions": "po"}, "Mus musculus [11]": {"tested_on": "Mus musculus", "assay": "Acetylcholine writhing inhibitory activity for the compound was measured in vivo in mouse by peroral administration at 100 uM"}, "Rattus norvegicus [12]": {"tested_on": "Rattus norvegicus", "assay": "Randall-Selitto activity for the compound was measured in rat (in vivo) by peroral administration", "conditions": "po, read-out: MED"}}}
{"molecule": "Cc1c(C(=O)c2cccc3ccccc23)c2ccccc2n1CCN1CCOC(O)C1", "note": "(stereo unspecified)", "values": [{"measurement": "Inhibition", "setting": "Mus musculus [1]", "value": 50, "unit": "%"}, {"measurement": "ED50", "setting": "Mus musculus [2]", "value": 9.7, "unit": "mg/kg"}]}
{"molecule": "Cc1cccc(C(=O)c2c(C)n(CCN3CCOCC3)c3ccccc23)c1", "values": [{"measurement": "Inhibition", "setting": "Mus musculus [3]", "value": 20, "unit": "%"}]}
{"molecule": "CSc1ccc(C(=O)c2c(C)n(CCN3CCOCC3)c3ccccc23)cc1", "values": [{"measurement": "ED50", "setting": "Mus musculus [4]", "value": 22, "unit": "mg/kg"}]}
{"molecule": "COc1ccc(C(=O)c2c(C)n(CCN3CCNCC3)c3ccccc23)cc1", "values": [{"measurement": "ED50", "setting": "Mus musculus [4]", "value": 21, "unit": "mg/kg"}]}
{"molecule": "O=C(c1cccc2ccccc12)c1cn(CCN2CCOCC2)c2ccccc12", "values": [{"measurement": "ED50", "setting": "Mus musculus [2]", "value": 0.12, "unit": "mg/kg"}, {"measurement": "ED50", "setting": "Mus musculus [4]", "value": 23, "unit": "mg/kg"}]}
{"molecule": "COc1ccc(C(=O)c2c(C)n(CCN3CCCC(O)C3)c3ccccc23)cc1", "note": "(stereo unspecified)", "values": [{"measurement": "ED50", "setting": "Mus musculus [4]", "value": 26, "unit": "mg/kg"}]}
{"molecule": "COc1ccc(C(=O)c2c(C)n(CCN(C)C)c3ccccc23)cc1", "values": [{"measurement": "ED50", "setting": "Mus musculus [4]", "value": 65, "unit": "mg/kg"}]}
{"molecule": "CC(C(=O)O)n1cc(C(=O)c2ccccc2F)c2ccccc21", "note": "(stereo unspecified)", "values": [{"measurement": "ED50", "setting": "Mus musculus [4]", "value": 8, "unit": "mg/kg"}]}
{"molecule": "Cc1c(C(=O)c2csc3ccccc23)c2ccccc2n1CCN1CCOCC1", "values": [{"measurement": "Inhibition", "setting": "Mus musculus [5]", "value": 60, "unit": "%"}]}
{"molecule": "COc1ccc(C(=O)c2c(C)n(CCN3CCC(O)CC3)c3ccccc23)cc1", "values": [{"measurement": "ED50", "setting": "Mus musculus [4]", "value": 68, "unit": "mg/kg"}]}
{"molecule": "Cc1c(C(=O)c2ccccc2F)c2ccccc2n1C(C)C(=O)O", "note": "(stereo unspecified)", "values": [{"measurement": "ED50", "setting": "Mus musculus [4]", "value": 12, "unit": "mg/kg"}]}
{"molecule": "CC(CN1CCOCC1)n1cc(C(=O)c2ccccc2F)c2ccccc21", "note": "(stereo unspecified)", "values": [{"measurement": "ED50", "setting": "Mus musculus [4]", "value": 19, "unit": "mg/kg"}]}
{"molecule": "Cc1c(C(=O)c2ccc(F)cc2)c2ccccc2n1CCN1CCOCC1", "values": [{"measurement": "Inhibition", "setting": "Mus musculus [6]", "value": 60, "unit": "%"}]}
{"molecule": "COc1ccc(C(=O)c2c(C)n(CCN3CCCCC3)c3ccccc23)cc1", "values": [{"measurement": "Inhibition", "setting": "Mus musculus [7]", "value": 71, "unit": "%"}]}
{"molecule": "Cc1c(C(=O)c2ccccc2F)c2ccccc2n1[C@H](C)CN1CCOCC1", "values": [{"measurement": "ED50", "setting": "Mus musculus [4]", "value": 9, "unit": "mg/kg"}]}
{"molecule": "C[C@@H](C(=O)O)n1cc(C(=O)c2ccccc2F)c2ccccc21", "values": [{"measurement": "ED50", "setting": "Mus musculus [2]", "value": 38, "unit": "mg/kg"}]}
{"molecule": "C[C@H](CN1CCOCC1)n1cc(C(=O)c2ccccc2F)c2ccccc21", "values": [{"measurement": "ED50", "setting": "Mus musculus [4]", "value": 11, "unit": "mg/kg"}]}
{"molecule": "C[C@H](C(=O)O)n1cc(C(=O)c2ccccc2F)c2ccccc21", "values": [{"measurement": "ED50", "setting": "Mus musculus [2]", "value": 5, "unit": "mg/kg"}]}
{"molecule": "C[C@@H](CN1CCOCC1)n1cc(C(=O)c2ccccc2F)c2ccccc21", "values": [{"measurement": "ED50", "setting": "Mus musculus [4]", "value": 48, "unit": "mg/kg"}]}
{"molecule": "CCNCCn1c(C)c(C(=O)c2ccc(OC)cc2)c2ccccc21", "values": [{"measurement": "ED50", "setting": "Mus musculus [4]", "value": 46, "unit": "mg/kg"}]}
{"molecule": "CCc1c(C(=O)c2ccc(OC)cc2)c2ccccc2n1CCN1CCOCC1", "values": [{"measurement": "ED50", "setting": "Mus musculus [4]", "value": 82, "unit": "mg/kg"}]}
{"molecule": "COc1ccc(C(=O)c2c(C)n(CCCCCCN3CCOCC3)c3ccccc23)cc1", "values": [{"measurement": "ED50", "setting": "Mus musculus [4]", "value": 28, "unit": "mg/kg"}]}
{"molecule": "Cc1c(C(=O)c2cccc3ccccc23)c2ccccc2n1CCN1CCOCC1", "values": [{"measurement": "ED50", "setting": "Rattus norvegicus [8]", "value": 52, "unit": "mg/kg"}, {"measurement": "ED50", "setting": "Mus musculus [2]", "value": 0.19, "unit": "mg/kg"}, {"measurement": "ED50", "setting": "Rattus norvegicus [9]", "value": 38, "unit": "mg/kg"}, {"measurement": "ED50", "setting": "Rattus norvegicus [10]", "value": 30, "unit": "mg/kg"}]}
{"molecule": "COc1ccc(C(=O)c2c(C)n(CC(=O)O)c3ccccc23)cc1", "values": [{"measurement": "ED50", "setting": "Mus musculus [4]", "value": 173, "unit": "mg/kg"}]}
{"molecule": "CCN(CC)CCn1c(C)c(C(=O)c2ccc(OC)cc2)c2ccccc21", "values": [{"measurement": "ED50", "setting": "Mus musculus [4]", "value": 50, "unit": "mg/kg"}]}
{"molecule": "Cc1c(C(=O)c2ccccc2F)c2ccccc2n1[C@@H](C)CN1CCOCC1", "values": [{"measurement": "ED50", "setting": "Mus musculus [4]", "value": 37, "unit": "mg/kg"}]}
{"molecule": "Cc1c(C(=O)c2cccc(F)c2)c2ccccc2n1CCN1CCOCC1", "values": [{"measurement": "Inhibition", "setting": "Mus musculus [11]", "value": 30, "unit": "%"}]}
{"molecule": "COc1ccc(C(=O)c2c(C)n(CCCCCN3CCOCC3)c3ccccc23)cc1", "values": [{"measurement": "ED50", "setting": "Mus musculus [4]", "value": 15, "unit": "mg/kg"}]}
{"molecule": "Cc1c(C(=O)c2ccccc2F)c2ccccc2n1CCN1CCOCC1", "values": [{"measurement": "ED50", "setting": "Mus musculus [4]", "value": 79, "unit": "mg/kg"}]}
{"molecule": "COc1ccc(C(=O)c2c(C)n(CCCCN3CCOCC3)c3ccccc23)cc1", "values": [{"measurement": "ED50", "setting": "Mus musculus [4]", "value": 56, "unit": "mg/kg"}]}
{"molecule": "O=C(c1ccccc1)c1ccc2n1CCC2C(=O)O", "note": "(stereo unspecified) [KETOROLAC]", "values": [{"measurement": "ED50", "setting": "Mus musculus [4]", "value": 1.1, "unit": "mg/kg"}]}
{"molecule": "COc1ccc(C(=O)c2c(C)n(CCN3CCOCC3)c3ccccc23)cc1", "note": "[PRAVADOLINE]", "values": [{"measurement": "ED50", "setting": "Rattus norvegicus [8]", "value": 120, "unit": "mg/kg"}, {"measurement": "minimal effective dose", "setting": "Rattus norvegicus [12]", "value": 1, "unit": "mg/kg"}, {"measurement": "ED50", "setting": "Mus musculus [4]", "value": 41, "unit": "mg/kg"}, {"measurement": "ED50", "setting": "Rattus norvegicus [9]", "value": 15, "unit": "mg/kg"}, {"measurement": "ED50", "setting": "Rattus norvegicus [10]", "value": 100, "unit": "mg/kg"}]}
